These are literature values, as cited in US7196180B2, “Functionalized derivatives of hyaluronic acid, formation of hydrogels in situ using same, and methods for making and using same” (Orthogene LLC, priority 1998, dated 2007).

Turning to `NCCCCN` [putrescine], the pKa is given as over 9.
